Measured values from patent US12595230B2, “Substituted 6,7-dihydro-5H-benzo[7]annulene compounds and their derivatives, processes for their preparation and therapeutic uses thereof” (Sanofi, priority 2020, dated 2026).

Biological target: T1, ERα (Homo sapiens, UniProt P03372)
T1 construct: host or cells: MCF7
T1 sequence (P03372 1-595): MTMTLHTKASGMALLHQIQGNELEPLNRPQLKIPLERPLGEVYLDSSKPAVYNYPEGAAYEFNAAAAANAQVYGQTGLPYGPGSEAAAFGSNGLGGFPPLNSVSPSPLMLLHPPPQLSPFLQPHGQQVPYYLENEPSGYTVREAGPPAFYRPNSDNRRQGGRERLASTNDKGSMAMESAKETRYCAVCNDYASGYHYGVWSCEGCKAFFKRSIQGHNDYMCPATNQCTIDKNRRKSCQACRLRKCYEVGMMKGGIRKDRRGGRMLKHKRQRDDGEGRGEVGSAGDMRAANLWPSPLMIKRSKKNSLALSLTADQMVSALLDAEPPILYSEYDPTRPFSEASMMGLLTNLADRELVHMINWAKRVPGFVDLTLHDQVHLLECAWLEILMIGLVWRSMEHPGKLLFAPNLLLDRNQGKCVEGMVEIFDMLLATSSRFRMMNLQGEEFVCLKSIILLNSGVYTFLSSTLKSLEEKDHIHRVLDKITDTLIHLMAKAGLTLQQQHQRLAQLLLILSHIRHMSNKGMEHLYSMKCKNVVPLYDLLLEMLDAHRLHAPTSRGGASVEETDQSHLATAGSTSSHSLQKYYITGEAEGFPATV
Test: Estrogen receptor degradation activity: breast cancer cell ERα in cell western assay (MCF7 cells)
Format: cell-based
Conditions: for % Degradation At 0.3 μM: 4 hours, relative to fulvestrant 0.1 μM positive control; for DC50: 4 hours post compound addition, concentration which degrades 50% of the estrogen receptor, read-out: Degradation IC50
Description: Test: Estrogen Receptor Degradation Activity Said test involves measuring the in vitro degradation activity of the compounds of the Table 1a. The measurements of the degradation activities were made using a breast cancer cell ERα in cell western assay as described hereunder. MCF7 cells (ATCC) were seeded in 384 wells microplate (collagen coated) at a concentration of 10000 cells/30 μL per well in red phenol free MEM alpha medium (invitrogen) containing 5% charcoal dextran striped FBS. The following day, 9 points serial 1:5 dilution of each compound was added to the cells in 2.5p L at final concentrations ranging from 0.3-0.0000018 μM (in table 2), or 0.1 μM for fulvestrant (using as positive control). At 4 hours post compound addition the cells were fixed by adding 25 μL of formalin (final concentration 5% formalin containing 0.1% triton) for 10 minutes at room temperature and then washed twice with PBS. Then, 50 μL of LI-COR blocking buffer containing 0.1% Triton was added to plate for 30 minutes at room temperature. LI-COR blocking buffer was removed and cells were incubated overnight at cold room with 50 μL anti-ER rabbit monoclonal antibody (Thermo scientific MA1-39540) diluted at 1:1000 in LI-COR blocking buffer containing 0.1% tween-20. Wells which were treated with blocking buffer but no antibody were used as background control. Wells were washed twice with PBS (0.1% tween-20) and incubated at 37° C. for 60 minutes in LI-COR (0.1% tween-20) containing goat anti-rabbit antibody Alexa 488 (1:1000) and Syto-64 a DNA dye (2 μM final concentration). Cells were then washed 3 times in PBS and scanned in ACUMEN explorer (TTP-Labtech). Integrated intensities in the green fluorescence and red fluorescence were measured to determine the levels of ERα and DNA respectively. The degradation activity with respect to estrogen receptors in this test is given by the concentration which degrades 50% of the estrogen receptor (or IC50) in nM. […] DMSO−fulvestrant)).

Structure (SMILES) | % Degradation At 0.3 μM [%] | DC50 [pM]
Cl.O=C(O)c1ccc2c(c1)CCCC(C1CCC(F)(F)CC1)=C2c1ccc(CC2CN(CCCF)C2)cc1 [Example 4, 8-(4,4-Difluorocyclohexyl)-9-(4-((1-(3-fluoropropyl)azetidin-3-yl)methyl)phenyl)-6,7-dihydro-5H-benzo[7]Annulene-3-carboxylic Acid Hydrochloride] | 85 | 900
Cl.O=C(O)c1ccc2c(c1)CCCC(C1=CCC(F)(F)CC1)=C2c1ccc(CC2CN(CCCF)C2)cc1 [Example 5, 8-(4,4-difluorocyclohex-1-en-1-yl)-9-(4-((1-(3-fluoropropyl)azetidin-3-yl)methyl)phenyl)-6,7-dihydro-5H-benzo[7]annulene-3-carboxylic acid] | 86 | 500
Cl.O=C(O)c1ccc2c(c1)CCCC(C1CCCC1)=C2c1ccc(CC2CN(CCCF)C2)cc1 [Example 6, 8-cyclopentyl-9-(4-((1-(3-fluoropropyl)azetidin-3-yl)methyl)phenyl)-6,7-dihydro-5H-benzo[7]annulene-3-carboxylic acid] | 82 | 800
Cc1ccc(C2=C(c3ccc(CC4CN(CCCF)C4)cc3)c3ccc(C(=O)O)cc3CCC2)c(Cl)c1.Cl [Example 7, 8-(2-chloro-4-methylphenyl)-9-(4-((1-(3-fluoropropyl)azetidin-3-yl)methyl)phenyl)-6,7-dihydro-5H-benzo[7]annulene-3-carboxylic acid] | 90 | 500
Cl.O=C(O)c1ccc2c(c1)CCCC(c1ccc(F)cc1Cl)=C2c1ccc(CC2CN(CCCF)C2)cc1 [Example 8, 8-(2-chloro-4-fluorophenyl)-9-(4-((1-(3-fluoropropyl)azetidin-3-yl)methyl)phenyl)-6,7-dihydro-5H-benzo[7]annulene-3-carboxylic acid] | 92 | 400
Cl.O=C(O)c1ccc2c(c1)CCCC(c1cccc(F)c1Cl)=C2c1ccc(CC2CN(CCCF)C2)cc1 [Example 9, 8-(2-chloro-3-fluorophenyl)-9-(4-((1-(3-fluoropropyl)azetidin-3-yl)methyl)phenyl)-6,7-dihydro-5H-benzo[7]annulene-3-carboxylic acid] | 92 | 300
Cc1ccc(C2=C(c3ccc(CC4CN(CCCF)C4)cc3)c3ccc(C(=O)O)cc3CCC2)c(C)c1.Cl [Example 10, 8-(2,4-dimethylphenyl)-9-(4-((1-(3-fluoropropyl)azetidin-3-yl)methyl)phenyl)-6,7-dihydro-5H-benzo[7]annulene-3-carboxylic acid] | 92 | 300
Cc1ccc(C2=C(c3ccc(CC4CN(CCCF)C4)cc3)c3ccc(C(=O)O)cc3CCC2)c(F)c1.Cl [Example 11, 8-(2-fluoro-4-methylphenyl)-9-(4-((1-(3-fluoropropyl)azetidin-3-yl)methyl)phenyl)-6,7-dihydro-5H-benzo[7]annulene-3-carboxylic acid] | 91 | 400
Cl.O=C(O)c1ccc2c(c1)CCCC(c1ccc(Cl)cc1F)=C2c1ccc(CC2CN(CCCF)C2)cc1 [Example 12, 8-(4-chloro-2-fluorophenyl)-9-(4-((1-(3-fluoropropyl)azetidin-3-yl)methyl)phenyl)-6,7-dihydro-5H-benzo[7]annulene-3-carboxylic acid] | 93 | 400
CC1(C)CCC(C2=C(c3ccc(CC4CN(CCCF)C4)cc3)c3ccc(C(=O)O)cc3CCC2)CC1.Cl [Example 13, 8-(4,4-dimethylcyclohexyl)-9-(4-((1-(3-fluoropropyl)azetidin-3-yl)methyl)phenyl)-6,7-dihydro-5H-benzo[7]annulene-3-carboxylic acid] | 85 | 300
C[C@H]1CC[C@@H](C2=C(c3ccc(CC4CN(CCCF)C4)cc3)c3ccc(C(=O)O)cc3CCC2)CC1 [Example 14, 9-(4-((1-(3-fluoropropyl)azetidin-3-yl)methyl)phenyl)-8-((1s,4s)-4-methylcyclohexyl)-6,7-dihydro-5H-benzo[7]annulene-3-carboxylic acid] | 80 | 800
C[C@H]1CC[C@H](C2=C(c3ccc(CC4CN(CCCF)C4)cc3)c3ccc(C(=O)O)cc3CCC2)CC1 [Example 15, 9-(4-((1-(3-fluoropropyl)azetidin-3-yl)methyl)phenyl)-8-((1r,4r)-4-methylcyclohexyl)-6,7-dihydro-5H-benzo[7]annulene-3-carboxylic acid] | 86 | 4000
COc1ccc(C2=C(c3ccc(CC4CN(CCCF)C4)cc3)c3ccc(C(=O)O)cc3CCC2)c(F)c1 [Example 16, 8-(2-fluoro-4-methoxyphenyl)-9-(4-((1-(3-fluoropropyl)azetidin-3-yl)methyl)phenyl)-6,7-dihydro-5H-benzo[7]annulene-3-carboxylic acid] | 94 | 400
Cc1cc(C(F)(F)F)ccc1C1=C(c2ccc(CC3CN(CCCF)C3)cc2)c2ccc(C(=O)O)cc2CCC1 [Example 17, 9-(4-((1-(3-fluoropropyl)azetidin-3-yl)methyl)phenyl)-8-(2-methyl-4-(trifluoromethyl)phenyl)-6,7-dihydro-5H-benzo[7]annulene-3-carboxylic acid] | 90 | 300
COc1ccc(C2=C(c3ccc(CC4CN(CCCF)C4)cc3)c3ccc(C(=O)O)cc3CCC2)cn1 [Example 18, 9-(4-((1-(3-fluoropropyl)azetidin-3-yl)methyl)phenyl)-8-(6-methoxypyridin-3-yl)-6,7-dihydro-5H-benzo[7]annulene-3-carboxylic acid] | 95 | 1600
O=C(O)c1ccc2c(c1)CCCC(c1cccc(Cl)c1Cl)=C2c1ccc(CC2CN(CCCF)C2)cc1 [Example 19, 8-(2,3-dichlorophenyl)-9-(4-((1-(3-fluoropropyl)azetidin-3-yl)methyl)phenyl)-6,7-dihydro-5H-benzo[7]annulene-3-carboxylic acid] | 91 | 300
Cc1cc(OC(F)F)ccc1C1=C(c2ccc(CC3CN(CCCF)C3)cc2)c2ccc(C(=O)O)cc2CCC1 [Example 20, 8-(4-(difluoromethoxy)-2-methylphenyl)-9-(4-((1-(3-fluoropropyl)azetidin-3-yl)methyl)phenyl)-6,7-dihydro-5H-benzo[7]annulene-3-carboxylic acid] | 91 | 300
COc1cc(C2=C(c3ccc(CC4CN(CCCF)C4)cc3)c3ccc(C(=O)O)cc3CCC2)ccn1 [Example 21, 9-(4-((1-(3-fluoropropyl)azetidin-3-yl)methyl)phenyl)-8-(2-methoxypyridin-4-yl)-6,7-dihydro-5H-benzo[7]annulene-3-carboxylic acid] | 89 | 2100
O=C(O)c1ccc2c(c1)CCCC(c1cccc(F)c1F)=C2c1ccc(CC2CN(CCCF)C2)cc1 [Example 22, 8-(2,3-difluorophenyl)-9-(4-((1-(3-fluoropropyl)azetidin-3-yl)methyl)phenyl)-6,7-dihydro-5H-benzo[7]annulene-3-carboxylic acid] | 92 | 300
O=C(O)c1ccc2c(c1)CCCC(c1ccccc1C(F)(F)F)=C2c1ccc(CC2CN(CCCF)C2)cc1 [Example 23, 9-(4-((1-(3-fluoropropyl)azetidin-3-yl)methyl)phenyl)-8-(2-(trifluoromethyl)phenyl)-6,7-dihydro-5H-benzo[7]annulene-3-carboxylic acid] | 91 | 200
COc1ccc(C2=C(c3ccc(CC4CN(CCCF)C4)cc3)c3ccc(C(=O)O)cc3CCC2)c(Cl)c1 [Example 24, 8-(2-chloro-4-methoxyphenyl)-9-(4-((1-(3-fluoropropyl)azetidin-3-yl)methyl)phenyl)-6,7-dihydro-5H-benzo[7]annulene-3-carboxylic acid] | 92 | 400
